Measurements reported in patent publication US11987586B1 (TAKEDA PHARMACEUTICAL COMPANY LIMITED, priority 2022, dated 2024).

biological target: T1, human OX2 receptor (Homo sapiens, UniProt O43614); test: Measurement of orexin type 2 receptor agonist activity (calcium fluorescence, Fluo-4, FDSS); format: cell-based; conditions: 3 uM test compound; CHO cells expressing human OX2 receptor; DMSO = 0%, 10 nM orexin A (human) = 100%
T1 construct: expressed in transfected cells
T1 sequence (O43614 1-444): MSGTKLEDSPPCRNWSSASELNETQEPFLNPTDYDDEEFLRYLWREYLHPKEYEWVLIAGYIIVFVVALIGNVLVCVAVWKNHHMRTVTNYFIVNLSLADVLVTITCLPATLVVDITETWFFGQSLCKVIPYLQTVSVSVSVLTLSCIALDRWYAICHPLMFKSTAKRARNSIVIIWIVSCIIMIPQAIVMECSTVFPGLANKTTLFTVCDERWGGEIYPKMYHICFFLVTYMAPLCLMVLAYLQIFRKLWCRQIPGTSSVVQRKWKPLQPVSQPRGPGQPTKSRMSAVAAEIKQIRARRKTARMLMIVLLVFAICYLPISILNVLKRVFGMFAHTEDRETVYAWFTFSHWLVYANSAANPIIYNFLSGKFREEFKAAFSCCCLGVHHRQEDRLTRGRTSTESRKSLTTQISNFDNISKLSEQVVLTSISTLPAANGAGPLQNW
Description: In order to obtain cell clones that stably express human orexin type 2 receptor, human orexin type 2 (residues 1-444, NCBI Reference Sequence: AK314279) was constructed in a pcDNA3.1 (+) vector (Invitrogen) to express in mammalian cells. This plasmid DNA was transfected into CHO-K1 cells by electroporation, and stable clones were obtained by limiting dilution using resistance to G418 as a selection marker.
CHO cells in which human OX2 receptor was forcibly expressed were seeded at 10,000 cells/well into a 384-well black transparent bottom plate (BD falcon), and were incubated at 37° C., 5% CO2 for 1 day after incubation at room temperature for 30 minutes. After removing the cell plate medium, assay buffer containing calcium indicator A (HBSS (Thermo Fisher Scientific), 20 mM HEPES (Thermo Fisher Scientific), 0.1% BSA (Sigma-Aldrich), 2.5 μg/mL Fluo-4 AM (Dojin Kagaku), 0.08% Pluronic F127 (Dojin Kagaku), 1.25 mM probenecid (Dojin Kagaku)) was added at 30 μL/well. After incubation in a 5% CO2 incubator at 37° C. for 30 minutes, it was incubated at room temperature for another 30 minutes. Add 10 μL/well of the test compound diluted with assay buffer B (HBSS, 20 mM HEPES, 0.1% BSA), and use FDSS μCELL (Hamamatsu Photonics) to measure the fluorescence value every 1 second for 1 minute, and then every 2 seconds for 1 minute. It was measured for 1 minute and 40 seconds. The amount of fluorescence value when DMSO is added instead of the test compound is defined as 0%, and the amount of fluorescence value when orexin A (human) (Peptide Institute) with a final concentration of 10 nM is added is defined as 100%. The activity (%) of the test compound was calculated.

Row | SMILES | OX2R agonist activity (3 uM, %) [%]
1 | CCS(=O)(=O)N[C@@H]1CN2C(=O)N(c3noc4cccc(-c5c(F)cccc5F)c34)C[C@@H]2[C@@H]1F (relative stereo) [Example 4, rel-N-{(6R,7S,7aR)-2-[4-(2,6-difluorophenyl)-1,2-benzoxazol-3-yl]-7-fluoro-3-oxohexahydro-1H-pyrrolo[1,2-c]imidazol-6-yl}ethanesulfonamide] | 105
2 | CCS(=O)(=O)N[C@@H]1Cn2c(cn(-c3noc4cccc(-c5c(F)cccc5F)c34)c2=O)[C@@H]1F (relative stereo) [Example 129, rel-N-{(6R, 7R)-2-[4-(2,6-difluorophenyl)-1,2-benzoxazol-3-yl]-7-fluoro-3-oxo-2,5,6,7-tetrahydro-3H-pyrrolo[1,2-c]imidazol-6-yl}ethanesulfonamide] | 103
3 | CCS(=O)(=O)N[C@H]1Cn2c(cn(-c3noc4cccc(-c5c(F)cccc5F)c34)c2=O)[C@@H]1C (relative stereo) [Example 131, rel-N-{(6R, 7R)-2-[4-(2,6-difluorophenyl)-1,2-benzoxazol-3-yl]-7-methyl-3-oxo-2,5,6,7-tetrahydro-3H-pyrrolo[1,2-c]imidazol-6-yl}ethanesulfonamide] | 96
4 | CS(=O)(=O)N[C@@H]1CN2C(=O)N(c3noc4cccc(-c5c(F)cccc5F)c34)C[C@H]2CC1(F)F (relative stereo) [Example 216, rel-N-{(6R,8aR)-2-[4-(2,6-difluorophenyl)-1,2-benzoxazol-3-yl]-7,7-difluoro-3-oxooctahydroimidazo[1,5-a]pyridin-6-yl}methanesulfonamide] | 101
5 | CS(=O)(=O)N[C@@H]1C[C@H]2CN(c3noc4cccc(-c5c(F)cccc5F)c34)C(=O)[C@H]2C1 (relative stereo) [Example 337, rel-N-{(3aR,5R,6aS)-2-[4-(2,6-difluorophenyl)-1,2-benzoxazol-3-yl]-1-oxooctahydrocyclopenta[c]pyrrol-5-yl}methanesulfonamide] | 79
6 | CCS(=O)(=O)NC1Cn2c(cn(-c3noc4cccc(-c5c(F)cccc5F)c34)c2=O)CC1(F)F (single isomer, unassigned) [Example 181, N-{(6R*)-2-[4-(2,6-difluorophenyl)-1,2-benzoxazol-3-yl]-7,7-difluoro-3-oxo-2,3,5,6,7,8-hexahydroimidazo[1,5-a]pyridin-6-yl}ethanesulfonamide] | 105
7 | CS(=O)(=O)NC1Cn2c(cn(-c3noc4ccc(F)c(-c5c(F)cc(F)cc5F)c34)c2=O)CC1(F)F (single isomer, unassigned) [Example 231, N-{(6R*)-7,7-difluoro-2-[5-fluoro-4-(2,4,6-trifluorophenyl)-1,2-benzoxazol-3-yl]-3-oxo-2,3,5,6,7,8-hexahydroimidazo[1,5-a]pyridin-6-yl}methanesulfonamide] | 103
8 | CCS(=O)(=O)NC1Cn2c(cn(-c3noc4cc(F)cc(-c5c(F)cc(F)cc5F)c34)c2=O)CC1(F)F (single isomer, unassigned) [Example 240, N-{(6R*)-7,7-difluoro-2-[6-fluoro-4-(2,4,6-trifluorophenyl)-1,2-benzoxazol-3-yl]-3-oxo-2,3,5,6,7,8-hexahydroimidazo[1,5-a]pyridin-6-yl}ethanesulfonamide] | 106
9 | CCS(=O)(=O)NC1Cn2cc(-c3noc4cccc(-c5c(F)cccc5F)c34)c(=O)n2C1 (single isomer, unassigned) [Example 339, N-{(2R*)-6-[4-(2,6-difluorophenyl)-1,2-benzoxazol-3-yl]-5-oxo-2,3-dihydro-1H,5H-pyrazolo[1,2-a]pyrazol-2-yl}ethanesulfonamide] | 96

Further lines, results first:

Row | OX2R agonist activity (3 uM, %) [%] | SMILES
10 | 107 | CS(=O)(=O)N[C@@H]1CC[C@H]2CN(c3noc4cccc(-c5c(F)cccc5F)c34)C(=O)N2C1 (relative stereo) [Example 63, rel-N-{(6R, 8aS)-2-[4-(2,6-difluorophenyl)-1,2-benzoxazol-3-yl]-3-oxooctahydroimidazo[1,5-a]pyridin-6-yl}methanesulfonamide]
11 | 103 | CCS(=O)(=O)N[C@H]1Cn2c(cn(-c3noc4cccc(-c5c(F)cccc5F)c34)c2=O)[C@H]1C (relative stereo) [Example 109, rel-N-{(6R,7S)-2-[4-(2,6-difluorophenyl)-1,2-benzoxazol-3-yl]-7-methyl-3-oxo-2,5,6,7-tetrahydro-3H-pyrrolo[1,2-c]imidazol-6-yl}ethanesulfonamide]
12 | 103 | CS(=O)(=O)N[C@@H]1CN2C(=O)N(c3noc4cccc(-c5c(F)cc(F)cc5F)c34)C(O)[C@@H]2C1(F)F (relative stereo) [Example 125, N-{(1R*,6R,7aR)-7,7-difluoro-1-hydroxy-3-oxo-2-[4-(2,4,6-trifluorophenyl)-1,2-benzoxazol-3-yl]hexahydro-1H-pyrrolo[1,2-c]imidazol-6-yl}methanesulfonamide]
13 | 100 | CS(=O)(=O)N[C@H]1C[C@H]2CN(c3noc4cccc(-c5c(F)cccc5F)c34)C(=O)[C@H]2C1 (relative stereo) [Example 338, rel-N-{(3aR,5S,6aS)-2-[4-(2,6-difluorophenyl)-1,2-benzoxazol-3-yl]-1-oxooctahydrocyclopenta[c]pyrrol-5-yl}methanesulfonamide]
14 | 106 | CCS(=O)(=O)NC1Cn2c(cn(-c3noc4cccc(-c5c(F)cccc5F)c34)c2=O)C1(F)F (single isomer, unassigned) [Example 5, N-{(6R*)-2-[4-(2,6-difluorophenyl)-1,2-benzoxazol-3-yl]-7,7-difluoro-3-oxo-2,5,6,7-tetrahydro-3H-pyrrolo[1,2-c]imidazol-6-yl}ethanesulfonamide]
15 | 97 | CS(=O)(=O)NC1Cn2c(cn(-c3noc4cccc(-c5c(F)cccc5F)c34)c2=O)CC1(F)F (single isomer, unassigned) [Example 117, N-{(6R*)-2-[4-(2,6-difluorophenyl)-1,2-benzoxazol-3-yl]-7,7-difluoro-3-oxo-2,3,5,6,7,8-hexahydroimidazo[1,5-a]pyridin-6-yl}methanesulfonamide]
16 | 106 | CS(=O)(=O)NC1Cn2c(cn(-c3noc4cc(F)cc(-c5c(F)cc(F)cc5F)c34)c2=O)CC1(F)F (single isomer, unassigned) [Example 214, N-{(6R*)-7,7-difluoro-2-[6-fluoro-4-(2,4,6-trifluorophenyl)-1,2-benzoxazol-3-yl]-3-oxo-2,3,5,6,7,8-hexahydroimidazo[1,5-a]pyridin-6-yl}methanesulfonamide]
17 | 108 | Cc1cc(-c2c(F)cc(F)cc2F)c2c(-n3cc4n(c3=O)CC(NS(C)(=O)=O)C(F)(F)C4)noc2n1 (single isomer, unassigned) [Example 245, N-{(6R*)-7,7-difluoro-2-[6-methyl-4-(2,4,6-trifluorophenyl)[1,2]oxazolo[5,4-b]pyridin-3-yl]-3-oxo-2,3,5,6,7,8-hexahydroimidazo[1,5-a]pyridin-6-yl}methanesulfonamide]
18 | 107 | CCS(=O)(=O)NC1Cn2c(cn(-c3noc4ccc(F)c(-c5c(F)cc(F)cc5F)c34)c2=O)CC1(F)F (single isomer, unassigned) [Example 246, N-{(6R*)-7,7-difluoro-2-[5-fluoro-4-(2,4,6-trifluorophenyl)-1,2-benzoxazol-3-yl]-3-oxo-2,3,5,6,7,8-hexahydroimidazo[1,5-a]pyridin-6-yl}ethanesulfonamide]
19 | 97 | Cc1cc2onc(-n3cc4n(c3=O)CC(NS(C)(=O)=O)C(F)(F)C4)c2c(-c2c(F)cc(F)cc2F)n1 (single isomer, unassigned) [Example 289, N-{(6R*)-7,7-difluoro-2-[6-methyl-4-(2,4,6-trifluorophenyl)[1,2]oxazolo[4,5-c]pyridin-3-yl]-3-oxo-2,3,5,6,7,8-hexahydroimidazo[1,5-a]pyridin-6-yl}methanesulfonamide]
20 | 98 | CCS(=O)(=O)NC1Cn2c(C)c(-c3noc4cccc(-c5c(F)cccc5F)c34)c(=O)n2C1 (single isomer, unassigned) [Example 336, N-{(2R*)-6-[4-(2,6-difluorophenyl)-1,2-benzoxazol-3-yl]-7-methyl-5-oxo-2,3-dihydro-1H,5H-pyrazolo[1,2-a]pyrazol-2-yl}ethanesulfonamide]
